Source: patent US12077503B2, “Substituted cyclic amides and their use as herbicides” (FMC CORPORATION, priority 2015, dated 2024)

Key:
Format in all cases: in vivo
[1] = tested on: velvetleaf (Abutilon theophrasti); test: Test G Pre-Emergence Protocol; conditions: Abutilon theophrasti, pre-emergence, 312 h, evaluated after 13 days; for pest or weed control at 15.625 g/ha: 15.625 g ai/ha; for pest or weed control at 15.625 g/ha / pest or weed control at 250 g/ha: read-out: Velvetleaf damage rating (100=total damage to plant; 0=no damage to plant); for pest or weed control at 62.5 g/ha: 62.5 g ai/ha, 100=total damage to plant, 0=no damage to plant, read-out: Velvetleaf damage rating; for pest or weed control at 250 g/ha: 250 g ai/ha
How it was run: (§1)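 Visual injury (0–100) at day 13 after a single pre-emergence spray. Rates: 15.625, 62.5, 250 g/ha in acetone–water 50:50 with 0.5% Tween 20. Growth conditions: 24/16° C, 14 h light, 65% humidity.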

[2] = tested on: ivy-leaved morning glory (Ipomoea hederacea); test: Test G Pre-Emergence Protocol; conditions: Ipomoea, pre-emergence, 312 h, evaluated after 13 days; for pest or weed control at 15.625 g/ha: 15.625 g ai/ha; for pest or weed control at 15.625 g/ha / pest or weed control at 250 g/ha: read-out: Morningglory, Ivy-leaved damage rating (100=total damage to plant; 0=no damage to plant); for pest or weed control at 62.5 g/ha: 62.5 g ai/ha, 100=total damage to plant, 0=no damage to plant, read-out: Morningglory, Ivy-leaved damage rating; for pest or weed control at 250 g/ha: 250 g ai/ha
How it was run: as §1

[3] = tested on: redroot pigweed (Amaranthus retroflexus); test: Test G Pre-Emergence Protocol; conditions: Amaranthus retroflexus, pre-emergence, 312 h, evaluated after 13 days; for pest or weed control at 15.625 g/ha: 15.625 g ai/ha; for pest or weed control at 15.625 g/ha / pest or weed control at 250 g/ha: read-out: Pigweed, Redroot damage rating (100=total damage to plant; 0=no damage to plant); for pest or weed control at 62.5 g/ha: 62.5 g ai/ha, 100=total damage to plant, 0=no damage to plant, read-out: Pigweed, Redroot damage rating; for pest or weed control at 250 g/ha: 250 g ai/ha
How it was run: as §1

[4] = tested on: giant foxtail (Setaria faberi); test: Test G Pre-Emergence Protocol; conditions: Setaria faberi, pre-emergence, 312 h, evaluated after 13 days; for pest or weed control at 15.625 g/ha: 15.625 g ai/ha; for pest or weed control at 15.625 g/ha / pest or weed control at 250 g/ha: read-out: Foxtail, Giant damage rating (100=total damage to plant; 0=no damage to plant); for pest or weed control at 62.5 g/ha: 62.5 g ai/ha, 100=total damage to plant, 0=no damage to plant, read-out: Foxtail, Giant damage rating; for pest or weed control at 250 g/ha: 250 g ai/ha
How it was run: as §1

[5] = tested on: barnyardgrass (Echinochloa crus-galli); test: Test G Pre-Emergence Protocol; conditions: Echinochloa crus-galli, pre-emergence, 312 h, evaluated after 13 days; for pest or weed control at 15.625 g/ha: 15.625 g ai/ha; for pest or weed control at 15.625 g/ha / pest or weed control at 250 g/ha: read-out: Barnyardgrass damage rating (100=total damage to plant; 0=no damage to plant); for pest or weed control at 62.5 g/ha: 62.5 g ai/ha, 100=total damage to plant, 0=no damage to plant, read-out: Barnyardgrass damage rating; for pest or weed control at 250 g/ha: 250 g ai/ha
How it was run: as §1

corn (Zea mays) [6] = test: Test G Pre-Emergence Protocol; conditions: Zea mays, pre-emergence, 312 h, evaluated after 13 days; for plant injury at 15.625 g/ha: 15.625 g ai/ha; for plant injury at 15.625 g/ha / plant injury at 250 g/ha: read-out: Corn damage rating (100=total damage to plant; 0=no damage to plant); for plant injury at 62.5 g/ha: 62.5 g ai/ha, 100=total damage to plant, 0=no damage to plant, read-out: Corn damage rating; for plant injury at 250 g/ha: 250 g ai/ha
How it was run: as §1

[7] = tested on: velvetleaf (Abutilon theophrasti); test: Test G Post-Emergence Protocol; conditions: Abutilon theophrasti, post-emergence, 312 h, read-out: Velvetleaf damage rating; for pest or weed control at 15.625 g/ha: 15.625 g ai/ha, evaluated after 13 days (100=total damage to plant; 0=no damage to plant); for pest or weed control at 62.5 g/ha: 62.5 g ai/ha; for pest or weed control at 62.5 g/ha / pest or weed control at 250 g/ha: evaluated after 13 days, 100=total damage to plant, 0=no damage to plant; for pest or weed control at 250 g/ha: 250 g ai/ha
How it was run: (§2)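 Values are percent visual injury at 13 days after treatment (0 none, 100 total). Treatment was a post-emergence spray at 15.625, 62.5 or 250 g/ha on 8-day-old pot plants kept at 24/16 °C.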

[8] = tested on: ivy-leaved morning glory (Ipomoea hederacea); test: Test G Post-Emergence Protocol; conditions: Ipomoea, post-emergence, 312 h, read-out: Morningglory, Ivy-leaved damage rating; for pest or weed control at 15.625 g/ha: 15.625 g ai/ha, evaluated after 13 days (100=total damage to plant; 0=no damage to plant); for pest or weed control at 62.5 g/ha: 62.5 g ai/ha; for pest or weed control at 62.5 g/ha / pest or weed control at 250 g/ha: evaluated after 13 days, 100=total damage to plant, 0=no damage to plant; for pest or weed control at 250 g/ha: 250 g ai/ha
How it was run: as §2

[9] = tested on: redroot pigweed (Amaranthus retroflexus); test: Test G Post-Emergence Protocol; conditions: Amaranthus retroflexus, post-emergence, 312 h, read-out: Pigweed, Redroot damage rating; for pest or weed control at 15.625 g/ha: 15.625 g ai/ha, evaluated after 13 days (100=total damage to plant; 0=no damage to plant); for pest or weed control at 62.5 g/ha: 62.5 g ai/ha; for pest or weed control at 62.5 g/ha / pest or weed control at 250 g/ha: evaluated after 13 days, 100=total damage to plant, 0=no damage to plant; for pest or weed control at 250 g/ha: 250 g ai/ha
How it was run: as §2

[10] = tested on: giant foxtail (Setaria faberi); test: Test G Post-Emergence Protocol; conditions: Setaria faberi, post-emergence, 312 h, read-out: Foxtail, Giant damage rating; for pest or weed control at 15.625 g/ha: 15.625 g ai/ha, evaluated after 13 days (100=total damage to plant; 0=no damage to plant); for pest or weed control at 62.5 g/ha: 62.5 g ai/ha; for pest or weed control at 62.5 g/ha / pest or weed control at 250 g/ha: evaluated after 13 days, 100=total damage to plant, 0=no damage to plant; for pest or weed control at 250 g/ha: 250 g ai/ha
How it was run: as §2

[11] = tested on: barnyardgrass (Echinochloa crus-galli); test: Test G Post-Emergence Protocol; conditions: Echinochloa crus-galli, post-emergence, 312 h, read-out: Barnyardgrass damage rating; for pest or weed control at 15.625 g/ha: 15.625 g ai/ha, evaluated after 13 days (100=total damage to plant; 0=no damage to plant); for pest or weed control at 62.5 g/ha: 62.5 g ai/ha; for pest or weed control at 62.5 g/ha / pest or weed control at 250 g/ha: evaluated after 13 days, 100=total damage to plant, 0=no damage to plant; for pest or weed control at 250 g/ha: 250 g ai/ha
How it was run: as §2

corn (Zea mays) [12] = test: Test G Post-Emergence Protocol; conditions: Zea mays, post-emergence, 312 h, read-out: Corn damage rating; for plant injury at 15.625 g/ha: 15.625 g ai/ha, evaluated after 13 days (100=total damage to plant; 0=no damage to plant); for plant injury at 62.5 g/ha: 62.5 g ai/ha; for plant injury at 62.5 g/ha / plant injury at 250 g/ha: evaluated after 13 days, 100=total damage to plant, 0=no damage to plant; for plant injury at 250 g/ha: 250 g ai/ha
How it was run: as §2

Row | Structure (SMILES) | pest or weed control at 15.625 g/ha [1] | pest or weed control at 62.5 g/ha [1] | pest or weed control at 250 g/ha [1] | pest or weed control at 15.625 g/ha [2] | pest or weed control at 62.5 g/ha [2] | pest or weed control at 250 g/ha [2] | pest or weed control at 15.625 g/ha [3] | pest or weed control at 62.5 g/ha [3] | pest or weed control at 250 g/ha [3] | pest or weed control at 15.625 g/ha [4] | pest or weed control at 62.5 g/ha [4] | pest or weed control at 250 g/ha [4] | pest or weed control at 15.625 g/ha [5] | pest or weed control at 62.5 g/ha [5] | pest or weed control at 250 g/ha [5] | plant injury at 15.625 g/ha (corn (Zea mays) [6]) | plant injury at 62.5 g/ha (corn (Zea mays) [6]) | plant injury at 250 g/ha (corn (Zea mays) [6]) | pest or weed control at 15.625 g/ha [7] | pest or weed control at 62.5 g/ha [7] | other results
1 | Cc1cc(C2CN(C)C(=O)C2C(=O)Nc2cccc(F)c2F)cc(C)c1F (stereo not drawn) [Compound 1712] | 0% | 0% | 20% | 0% | 0% | 20% | 10% | 0% | 10% | 80% | 90% | 90% | 60% | 80% | 90% | 0% | 10% | 70% | 10% | 10% | pest or weed control at 250 g/ha [7]: 40%; pest or weed control at 15.625 g/ha [8]: 10%; pest or weed control at 62.5 g/ha [8]: 30%; pest or weed control at 250 g/ha [8]: 70%; pest or weed control at 15.625 g/ha [9]: 0%; pest or weed control at 62.5 g/ha [9]: 20%; pest or weed control at 250 g/ha [9]: 20%; pest or weed control at 15.625 g/ha [10]: 80%; pest or weed control at 62.5 g/ha [10]: 80%; pest or weed control at 250 g/ha [10]: 80%; pest or weed control at 15.625 g/ha [11]: 50%; pest or weed control at 62.5 g/ha [11]: 80%; pest or weed control at 250 g/ha [11]: 90%; plant injury at 15.625 g/ha (corn (Zea mays) [12]): 40%; plant injury at 62.5 g/ha (corn (Zea mays) [12]): 70%; plant injury at 250 g/ha (corn (Zea mays) [12]): 70%
2 | COc1cc(C2CN(C)C(=O)C2C(=O)Nc2cccc(F)c2F)cc(C)c1C (stereo not drawn) [Compound 1713] | 0% | 0% | 0% | 0% | 0% | 0% | 0% | 0% | 0% | 50% | 70% | 90% | 30% | 70% | 90% | 10% | 20% | 90% | 0% | 0% | pest or weed control at 250 g/ha [7]: 20%; pest or weed control at 15.625 g/ha [8]: 20%; pest or weed control at 62.5 g/ha [8]: 60%; pest or weed control at 250 g/ha [8]: 70%; pest or weed control at 15.625 g/ha [9]: 0%; pest or weed control at 62.5 g/ha [9]: 0%; pest or weed control at 250 g/ha [9]: 0%; pest or weed control at 15.625 g/ha [10]: 60%; pest or weed control at 62.5 g/ha [10]: 80%; pest or weed control at 250 g/ha [10]: 80%; pest or weed control at 15.625 g/ha [11]: 10%; pest or weed control at 62.5 g/ha [11]: 80%; pest or weed control at 250 g/ha [11]: 80%; plant injury at 15.625 g/ha (corn (Zea mays) [12]): 0%; plant injury at 62.5 g/ha (corn (Zea mays) [12]): 50%; plant injury at 250 g/ha (corn (Zea mays) [12]): 80%
3 | CCOc1ccc(C2CN(C)C(=O)C2C(=O)Nc2cccc(F)c2F)cc1F (stereo not drawn) [Compound 1717] | 0% | 10% | 0% | 0% | 0% | 0% | 0% | 10% | 20% | 60% | 90% | 90% | 0% | 40% | 90% | 0% | 0% | 0% | 0% | 0% | pest or weed control at 250 g/ha [7]: 0%; pest or weed control at 15.625 g/ha [8]: 0%; pest or weed control at 62.5 g/ha [8]: 0%; pest or weed control at 250 g/ha [8]: 0%; pest or weed control at 15.625 g/ha [9]: 0%; pest or weed control at 62.5 g/ha [9]: 0%; pest or weed control at 250 g/ha [9]: 0%; pest or weed control at 15.625 g/ha [10]: 30%; pest or weed control at 62.5 g/ha [10]: 70%; pest or weed control at 250 g/ha [10]: 80%; pest or weed control at 15.625 g/ha [11]: 0%; pest or weed control at 62.5 g/ha [11]: 60%; pest or weed control at 250 g/ha [11]: 70%; plant injury at 15.625 g/ha (corn (Zea mays) [12]): 0%; plant injury at 62.5 g/ha (corn (Zea mays) [12]): 0%; plant injury at 250 g/ha (corn (Zea mays) [12]): 10%
